{
  "source": "patent US20110305637A1",
  "about": "“RADIOLABELLED PDE10 LIGANDS” (Janssen Pharmaceutica N.V., priority 2009, published 2011)",
  "target": "T1, PDE10A (Rattus norvegicus, UniProt Q9QYJ6)",
  "T1 construct": "from tissue; host or cells: brain (striatum) of living male Wistar rats, in vivo microPET",
  "T1 sequence (Q9QYJ6 1-794)": "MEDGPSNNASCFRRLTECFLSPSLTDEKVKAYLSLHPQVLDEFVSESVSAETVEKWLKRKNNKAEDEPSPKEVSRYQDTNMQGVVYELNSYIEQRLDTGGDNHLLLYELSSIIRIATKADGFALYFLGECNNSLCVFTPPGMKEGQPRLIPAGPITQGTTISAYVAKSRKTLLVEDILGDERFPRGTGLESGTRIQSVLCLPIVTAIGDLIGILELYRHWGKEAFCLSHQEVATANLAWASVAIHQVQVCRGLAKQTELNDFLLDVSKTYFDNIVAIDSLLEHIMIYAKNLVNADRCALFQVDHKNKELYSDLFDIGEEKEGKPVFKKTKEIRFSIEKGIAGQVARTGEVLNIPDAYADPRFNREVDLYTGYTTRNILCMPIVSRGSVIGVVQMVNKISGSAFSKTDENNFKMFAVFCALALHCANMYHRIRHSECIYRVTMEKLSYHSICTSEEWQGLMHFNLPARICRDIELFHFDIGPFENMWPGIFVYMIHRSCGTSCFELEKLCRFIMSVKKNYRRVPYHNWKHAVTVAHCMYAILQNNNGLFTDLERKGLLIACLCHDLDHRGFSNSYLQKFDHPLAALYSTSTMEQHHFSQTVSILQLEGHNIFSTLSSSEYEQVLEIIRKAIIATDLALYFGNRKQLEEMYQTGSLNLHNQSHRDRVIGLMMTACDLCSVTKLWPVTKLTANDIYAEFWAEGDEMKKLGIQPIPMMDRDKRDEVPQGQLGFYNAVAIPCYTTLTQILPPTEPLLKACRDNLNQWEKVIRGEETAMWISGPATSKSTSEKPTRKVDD",
  "test": "microPET imaging study",
  "assay_type": "in vivo",
  "description": "(§1) Imaging experiments were performed on a Focus™ 220 microPET scanner (Concorde Microsystems, Knoxville, Tenn., USA) using male Wistar rats with body weight between 200 and 300 g. Animals were injected with about 74 MBq of high specific activity formulation of [^18F]B-1 via tail vein under anesthesia (2.5% Isoflurane in O2 at 1 L/min flow rate). Dynamic scans of 90 min were acquired in List mode. Acquisition data were Fourier rebinned in different time frames (4×15 s, 4×1 min, 5×3 min, 14×5 min) and reconstructed with Filtered Back Projection (FBP). An average image (frame 1 to 27) of the reconstructed data was spatially normalized to an in-house created [^11C]raclopride template of the rat brain in Paxinos coordinates. The affine transformation was then used to normalize all time frames of the dynamic dataset to allow automated and symmetric volumes of interest (VOIs) analyses. Time-activity curves (TAC) were generated for striatum, cortex and cerebellum for each individual scan, using PMOD software (v 3.0, PMOD Technologies Ltd., Zurich, Switzerland). The radioactivity concentration in the different brain regions was expressed as standardized uptake value (SUV) as a function of time p.i. of the radiotracer by normalization for body weight of the animal and injected dose. Since PDE10A is expressed at low level in the cerebellum, binding potential (BP) values were calculated using the multilinear reference tissue model developed by Ichise et al. with the cerebellum considered as reference, using the same software (PMOD). Rats (n=5) were used for baseline imaging of which 3 animals were used in pretreatment studies in which the non-radioactive analogue B-1 was administered subcutaneously at a dose of 5 mg/kg at 30 min prior to the radiotracer injection.\nImaging experiments were performed on a Focus™ 220 microPET scanner (Concorde Microsystems, Knoxville, Tenn., USA) using male Wistar rats with body weight between 350 and 480 g. For the baseline microPET study, rats (n=2) were injected with about 74 MBq of high specific activity formulation of [^18F]B-2 via tail vein under anesthesia (2.5% Isoflurane in O2 at 1 L/min flow rate). For the pretreatment experiment, the radioactivity dose was reduced to about 37 MBq. Pretreatment was done by administering the non-radioactive analogue B-2 subcutaneously at a dose of 2.5 mg/kg at 60 min prior to the tracer injection (n=1).\nas §1, with “Dynamic” for “Imaging experiments were performed on a Focus™ 220 microPET scanner (Concorde Microsystems, Knoxville, Tenn., USA) using male Wistar rats with body weight between 200 and 300 g. Animals were injected with about 74 MBq of high specific activity formulation of [^18F]B-1 via tail vein under anesthesia (2.5% Isoflurane in O2 at 1 L/min flow rate). Dynamic”, “120” for “90”, “8×5 min, 10×6” for “14×5”, “31)” for “27)”, “(PMOD).” for “(PMOD). Rats (n=5) were used for baseline imaging of which 3 animals were used in pretreatment studies in which the non-radioactive analogue B-1 was administered subcutaneously at a dose of 5 mg/kg at 30 min prior to the radiotracer injection.”",
  "data": [
    {"smiles": "[18F]CCCn1cc(-c2ccncc2)c(-c2ccc(OCc3ccc4ccccc4n3)cc2)n1", "note": "[[^18F]B-1]", "values": [
      {"measurement": "binding potential (BP) value after non-radioactive analogue", "setting": "B-1, 5 mg/kg s.c., 30 min prior to tracer", "result": "0.11±0.10"},
      {"measurement": "time at which peak tissue concentrations in the brain were reached", "setting": "baseline", "result": "within one minute"},
      {"measurement": "Peak striatum-to-cerebellum ratio", "setting": "baseline, at 15 min post injection", "result": 2.7},
      {"measurement": "striatum-to-cerebellum ratio", "setting": "baseline, until about 35 min post injection", "result": "higher than 2.5"},
      {"measurement": "binding potential (BP) value at baseline", "setting": "baseline, cerebellum as reference", "result": "0.58±0.17"},
      {"measurement": "reduction in BP values with pretreatment compared to baseline", "setting": "non-radioactive B-1, 5 mg/kg s.c., 30 min prior", "result": "about 80%"},
      {"measurement": "striatum-to-cerebellum ratio after pre-treatment", "setting": "pre-treated with non-radioactive B-1, 5 mg/kg s.c., 30 min prior", "result": 1.5}
    ]}
  ]
}
